From paper PMC11844072, “Novel 5,6-dichlorobenzimidazole derivatives as dual BRAFWT and BRAFV600E inhibitors: design, synthesis, anti-cancer activity and molecular dynamics simulations” (BMC Chemistry, 2025) come the findings set out here.

For assay [1], the system named is NCI 60 cancer cell line panel. Briefly: NCI 60 single concentration growth inhibition, panel mean. It is filed as cell-based. The settings on record: Homo sapiens, mean over NCI 60 panel, read-out: Mean GI%. How it is done: (§1) The synthesized dichlorobenzimidazoles 10a–p were assayed for their influence on divers cancer cell lines according to the method presented in the Additional file A.
(§2) 5. Screening of cytotoxic activity against a panel of sixty human tumor cell lines
(§3) The selected compounds by NCI were evaluated for their anticancer activity in a two-stage process. First, these compounds were screened against the full NCI 60 cell lines panel at a single high dose of 10 µM. Then, the output from the single dose screen is reported as a mean graph. […]
at five different minimal concentrations.
(§4) Assay protocol. The human tumor cell lines of the cancer screening panel are grown in RPMI 1640 medium containing 5% fetal bovine serum and 2 mM L-glutamine. For a typical screening experiment, cells are inoculated into 96 well microtiter plates in 100 µL at plating densities ranging from 5000 to 40,000 cells/well depending on the doubling time of individual cell lines. After cell inoculation, the microtiter plates are incubated at 37 °C, 5% CO 2, 95% air and 100% relative humidity for 24 h prior to addition of the experimental drugs.
(§5) After 24 h, two plates of each cell line are fixed in situ with TCA, to represent a measurement of the cell population for each cell line at the time of drug addition (Tz). The experimental drugs are solubilized in dimethyl sulfoxide at 400-fold the desired final maximum test concentration and stored frozen prior to use. At the time of drug addition, an aliquot of frozen concentrate is thawed and diluted to twice the desired final maximum test concentration with complete medium containing 50 µg/mL gentamicin. Additional four, 10-fold or ½ log serial dilutions are made to provide a total of five drug concentrations plus control.
(§6) Aliquots of […] of these different drug dilutions are added to the appropriate microtiter wells already containing […] of medium, resulting in the required final drug concentrations.
(§7) Following drug addition, the plates are incubated for an additional 48 h at 37 °C, 5% CO 2, 95% air, and 100% relative humidity. For adherent cells, the assay is terminated by the addition of cold TCA.
(§8) Cells are fixed in situ by the gentle addition of 50 µL of cold 50% (w/v) TCA (final concentration, 10% TCA) and incubated for 60 min at 4 °C. The supernatant is discarded, and the plates are washed five times with tap water and air dried. Sulforhodamine B (SRB) solution ([…]) at 0.4% (w/v) in 1% acetic acid is added to each well, and plates are incubated for 10 min at room temperature. After staining, unbound dye is removed by washing five times with 1% acetic acid and the plates are air dried. Bound stain is subsequently solubilized with 10 mM trizma base, and the absorbance is read on an automated plate reader at a wavelength of 515 nm. For suspension cells, the methodology is […]
(§9) the same except that the assay is terminated by fixing settled cells at the bottom of the wells by gently adding 50 µl of 80% TCA (final concentration, 16% TCA). Using the seven absorbance measurements [time zero, (Tz), control growth, (C), and test growth in the presence of drug at the five concentration levels (Ti)], the percentage growth is calculated at each of the drug concentrations […]
Percentage growth inhibition is calculated as: [(Ti Tz)/(C–Tz)] x 100 for concentrations for which Ti>/=Tz and [(Ti-Tz)/Tz] x 100 for concentrations for which Ti < Tz.
Three dose response parameters are calculated for each experimental agent. Growth […]
concentration resulting in a 50% reduction in the net protein increase (as measured by SRB staining) in control cells during the drug incubation. The drug concentration resulting in total growth inhibition (TGI) is calculated from Ti = Tz. […]
reduction in the measured protein at the end of the drug treatment as compared to that at the beginning) indicating a net loss of cells following treatment is calculated from [(Ti–Tz)/Tz] x 100 =
_50. Values are calculated for each of these three parameters if the level of activity is reached; […]

The next assay concerns OVCAR-3. As to the kind of experiment: NCI 60 single concentration growth inhibition. It is filed as cell-based, human. Conditions: Homo sapiens, OVCAR-3, Ovarian cancer, read-out: GI%. How it is done: as §1, §2, §3, §4, §5, §6, §7, §8, §9
(§10) Percentage growth inhibition is calculated as: [(Ti Tz)/(C–Tz)] x 100 for concentrations for which Ti>/=Tz and [(Ti-Tz)/Tz] x 100 for concentrations for which Ti < Tz. […]
(§11) Results for each compound were reported as a mean graph of the percent growth of the treated cells when compared to the untreated control cells. There after obtaining the results for one dose assay, analysis of historical Development Therapeutics Programme (DTP) was performed and compounds which satisfies predetermined threshold inhibition criteria is selected for NCI full panel 5 dose assay.

The next assay has as its system HOP-92. As to the kind of experiment: NCI 60 single concentration growth inhibition. It is filed as cell-based, human. Conditions: Homo sapiens, HOP-92, Non-small cell lung cancer, read-out: GI%. How it is done: as §1, §2, §3, §4, §5, §6, §7, §8, §9, §10, §11
The next assay deals with SNB-19. Briefly: NCI 60 single concentration growth inhibition. It is filed as cell-based, human. The settings on record: Homo sapiens, SNB-19, CNS cancer, read-out: GI%. Here is the method: as §1, §2, §3, §4, §5, §6, §7, §8, §9, §10, §11
A further assay relates to OVCAR-4. As to the kind of experiment: NCI 60 single concentration growth inhibition. It is filed as cell-based, human. Conditions: Homo sapiens, OVCAR-4, Ovarian cancer, read-out: GI%. Here is the method: as §1, §2, §3, §4, §5, §6, §7, §8, §9, §10, §11
A further assay deals with HT29. As to the kind of experiment: NCI 60 single concentration growth inhibition. It is filed as cell-based, human. The settings on record: Homo sapiens, HT-29, HT29, Colon cancer, read-out: GI%. Here is the method: as §1, §2, §3, §4, §5, §6, §7, §8, §9, §10, §11
The next assay relates to NCI-H460. Briefly: NCI 60 single concentration growth inhibition. It is filed as cell-based, human. The settings on record: Homo sapiens, NCI-H460, Non-small cell lung cancer, read-out: GI%. How it is done: as §1, §2, §3, §4, §5, §6, §7, §8, §9, §10, §11
For another assay, the system named is TK-10. As to the kind of experiment: NCI 60 single concentration growth inhibition. It is filed as cell-based, human. Conditions: Homo sapiens, TK-10, Renal cancer, read-out: GI%. Here is the method: as §1, §2, §3, §4, §5, §6, §7, §8, §9, §10, §11
The subject of a further assay is DU-145. As to the kind of experiment: NCI 60 single concentration growth inhibition. It is filed as cell-based, human. Conditions: Homo sapiens, DU-145, Prostate cancer, read-out: GI%. Here is the method:
as §1, §2, §3, §4, §5, §6, §7, §8, §9, §10, §11

Another assay deals with SK-MEL-5. Briefly: NCI 60 single concentration growth inhibition. It is filed as cell-based, human. Conditions: Homo sapiens, SK-MEL-5, Melanoma, read-out: GI%. The method in brief:
(§12)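 Growth measured by sulforhodamine B protein staining (515 nm) after 48 h drug exposure at 37 °C, following 24 h plating in RPMI 1640 with 5% FBS and 2 mM L-glutamine. Compounds first tested at one 10 µM dose, then five-dose series (10-fold or ½ log steps); percent growth relative to time-zero and untreated wells.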

The subject of another assay is EKVX. As to the kind of experiment: NCI 60 single concentration growth inhibition. Conditions: Homo sapiens, Non-small cell lung cancer, read-out: GI%. It is filed as cell-based, human. The method in brief:
as §12

The subject of a further assay is CAKI-1. Briefly: NCI 60 single concentration growth inhibition. It is filed as cell-based, human. Conditions: Homo sapiens, CAKI-1, Renal cancer, read-out: GI%. The essentials: as §12
In a further assay the test system is MDA-MB-435. As to the kind of experiment: NCI 60 single concentration growth inhibition. It is filed as cell-based, human. The settings on record: Homo sapiens, MDA-MB-435, Melanoma, read-out: GI%. The method in brief:
as §12

In another assay the test system is OVCAR-5. As to the kind of experiment: NCI 60 single concentration growth inhibition. It is filed as cell-based, human. The settings on record: Homo sapiens, OVCAR-5, Ovarian cancer, read-out: GI%. The essentials: as §12
For a further assay, the system named is CCRF-CEM. As to the kind of experiment: NCI 60 single concentration growth inhibition. It is filed as cell-based, human. Conditions: Homo sapiens, Leukemia, read-out: GI%. The method in brief: as §12
For a further assay, the system named is UACC-62. Briefly: NCI 60 single concentration growth inhibition. It is filed as cell-based, human. Conditions: Homo sapiens, UACC-62, Melanoma, read-out: GI%. The essentials: as §12
Another assay concerns BT-549. As to the kind of experiment: NCI 60 single concentration growth inhibition. The settings on record: Homo sapiens, BT-549, Breast cancer, read-out: GI%. It is filed as cell-based, human. The method in brief: as §12
The next assay deals with HL-60(TB). As to the kind of experiment: NCI 60 single concentration growth inhibition. It is filed as cell-based, human. The settings on record: Homo sapiens, Leukemia, read-out: GI%. The method in brief:
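Read-out is SRB absorbance at 515 nm after TCA fixation (10% for adherent lines, 16% for suspension lines). Drugs were applied for 48 h following a 24 h plating period. Growth percentages came from time-zero, control and treated absorbances.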

Take `COc1ccc(-c2nc3cc(Cl)c(Cl)cc3n2CC(=O)NN=Cc2ccc(O)cc2)cc1` [Compound 10b, 2-(5,6-Dichloro-2-(4-methoxyphenyl)-1H-benzo[d]imidazol-1-yl)-N'-(4-hydroxybenzylidene)acetohydrazide]: the inhibition at 10 µM stood at 38.5% in [1]; 27% in the assay with OVCAR-3; 40% in the assay with HOP-92; 39% in the assay with SNB-19; 52.8% with OVCAR-4; 25.1% in the assay with HT29. The inhibition at 10 µM was found to be 49.7% in the assay with NCI-H460; 13.9% with TK-10; 30.8% in the assay on DU-145; 52.1% in the assay with SK-MEL-5; 52.6% with EKVX; 57.2% in the assay on CAKI-1. Moreover, the inhibition at 10 µM is 39.1% in the assay with MDA-MB-435; under 5% with OVCAR-5; 25.4% in the assay with CCRF-CEM; 38% with UACC-62; 65.6% with BT-549; 50.7% in the assay on HL-60(TB).

Turning to `COc1ccc(-c2nc3cc(Cl)c(Cl)cc3n2CC(=O)NN=Cc2cccc(OC)c2)cc1` [Compound 10c, 2-(5,6-Dichloro-2-(4-methoxyphenyl)-1H-benzo[d]imidazol-1-yl)-N'-(3-methoxybenzylidene)acetohydrazide], the inhibition at 10 µM was found to be 28.1% in assay [1]; 14.4% in the assay with OVCAR-3; 20.6% in the assay with HOP-92; 32.4% in the assay on SNB-19; 42.1% with OVCAR-4; 5.29% in the assay with HT29. Moreover, the inhibition at 10 µM in the assay on NCI-H460 turned out to be 23.7%; in the assay with TK-10, 5.88%; in the assay with DU-145, 23.3%; in the assay with SK-MEL-5, 44.5%; in the assay on EKVX, 30.4%; in the assay with CAKI-1, 43.5%. Further, the inhibition at 10 µM with MDA-MB-435 is 33%; in the assay on OVCAR-5 it was under 5%; in the assay on CCRF-CEM, 41.8%; in the assay with UACC-62, 37.2%; with BT-549, 52.9%; in the assay with HL-60(TB), 28.8%.

For `COc1ccc(C=NNC(=O)Cn2c(-c3ccc(OC)cc3)nc3cc(Cl)c(Cl)cc32)cc1` [Compound 10d, 2-(5,6-Dichloro-2-(4-methoxyphenyl)-1H-benzo[d]imidazol-1-yl)-N'-(4-methoxybenzylidene)acetohydrazide], the inhibition at 10 µM in assay [1] is 44.6%; in the assay with OVCAR-3 it was 22.7%; with HOP-92, 10.9%; in the assay on SNB-19, 50.5%; with OVCAR-4 it was 65%; with HT29, 37.5%. In addition, the inhibition at 10 µM worked out at 47.2% in the assay with NCI-H460; 34.9% with TK-10; 41.2% with DU-145; 78.9% with SK-MEL-5; 76.8% in the assay on EKVX; 52% with CAKI-1. Moreover, the inhibition at 10 µM with MDA-MB-435 amounted to 41.4%; in the assay on OVCAR-5, 21.5%; in the assay with CCRF-CEM it was 40.2%; with UACC-62, 34.1%; in the assay on BT-549 it was 50.3%; in the assay with HL-60(TB), 40.9%.

On to `COc1ccc(-c2nc3cc(Cl)c(Cl)cc3n2CC(=O)NN=Cc2cccc(OCC(=O)O)c2)cc1` [Compound 10e, 2-(3-((2-(2-(5,6-Dichloro-2-(4-methoxyphenyl)-1H-benzo[d]imidazol-1-yl)acetyl)hydrazono)methyl)phenoxy)acetic acid], for which the inhibition at 10 µM (in assay [1]; with OVCAR-3; in the assay on HOP-92; in the assay with SNB-19; with OVCAR-4; in the assay with HT29) was under 5% throughout. The inhibition at 10 µM with NCI-H460, with TK-10, in the assay with DU-145, with SK-MEL-5, in the assay with EKVX and with CAKI-1 was under 5% each time. The inhibition at 10 µM in the assay on MDA-MB-435, in the assay with OVCAR-5, with CCRF-CEM, in the assay on UACC-62, in the assay with BT-549 and in the assay on HL-60(TB) was under 5% in each case.
